Assay results from PMC6273431, “The Structure–Antimicrobial Activity Relationships of a Promising Class of the Compounds Containing the N-Arylpiperazine Scaffold” (Molecules, 2016).
Like-named read-outs stand apart in the source and are kept apart here.

Legend:
[1] = system: Enterococcus faecalis ATCC 29212; assay: antibacterial MIC, microtitration broth method; type: cell-based; conditions: 37 °C
Protocol: (§1) Prior to the testing, each strain was transferred into a nutrient agar (Oxoid Limited, Basingstoke, UK), which was enriched with 5% defibrinated bovine blood.
(§2) The MICs were determined by the microtitration broth method in the cation-adjusted Mueller-Hinton broth (Becton Dickinson, Oxford, UK) according to an international interdisciplinary Clinical Laboratory Standard Institute guidelines.
(§3) The checkerboard was inoculated by the bacterial inocula, which were prepared in a phosphate buffered saline solution with the pH = 7.2–7.3 to simulate physiological pH. The final concentration of each inoculum in the final volume of 100 μL in the wells was approximately 7.5 × 10^6 CFU/mL. Drug-free controls, sterility controls and the controls consisted of the broth with DMSO were included. The determination of the results was performed visually after 24 h of static incubation in the darkness at 37 °C in an aerobic atmosphere.
(§4) To ensure reproducibility, each antibacterial MIC assay was performed triplicate on separate occasions.

[2] = system: methicillin-resistant Staphylococcus aureus 63718; assay: antibacterial MIC, microtitration broth method; type: cell-based; conditions: MRSA, 37 °C
Protocol: as §1, §2, §3, §4

[3] = system: Staphylococcus aureus ATCC 29213; assay: antibacterial MIC, microtitration broth method; type: cell-based; conditions: 37 °C
Protocol: as §1, §2, §3, §4

[4] = system: Escherichia coli ATCC 25922; assay: antibacterial MIC, microtitration broth method; type: cell-based; conditions: 37 °C
Protocol: as §1, §2, §3, §4

[5] = system: Candida parapsilosis CCM 8260; assay: candidacidal MIC, microdilution method; type: cell-based; conditions: 48 h, 37 °C
Protocol: (§5) In order to provide a look into the potential usefulness of the derivatives 5a–l as the candidates for a development of anti-yeast (candidacidal) agents, they were in vitro tested against Candida albicans CCM 8261 (CA 8261), C. krusei CCM 8271 (CK 8271) and C. parapsilosis CCM 8260 (CP 8260). The yeasts were obtained from the Czech Collection of Microorganisms (Masaryk University, Faculty of Science, Brno, Czech Republic). They were grown and kept on Sabouraud agar (Oxoid Limited, Basingstoke, UK).
(§6) For the screening, the microdilution method according to the Antimicrobial Susceptibility Testing Protocols was applied. The inoculum was prepared from the cultures grown on Sabouraud agar. With the sterile solution of NaCl, the inoculum was prepared to the 0.5 McFarland units using the Densi-La-Meter densitometer (LIAP, Riga, Latvia) and diluted a thousand‑fold with the Roswell Park Memorial Institute (RPMI) 1640 medium (Sigma-Aldrich, Darmstadt, Germany). Prepared suspension was used for an inoculation of microtitre plates. Final concentration in wells ranged from 5.0 × 10^2 CFU/mL to 2.5 × 10^3 CFU/mL. […] For the determination of the MICs, the stock solutions of all the tested compounds were diluted in the microtitre checkerboard to the final concentration varying from 128 μg/mL to 0.125 μg/mL. Drug-free control, sterility control and the control consisted of a medium and DMSO alone were included. Inoculated microtitre plates were incubated for 48 h in the darkness at 37 °C in an aerobic atmosphere. The results were estimated against static light.
(§7) The MIC was defined as the lowest concentration of the tested compound at which no visible growth was observed. To ensure reproducibility of the results, each candidacidal MIC assay was performed triplicate on separate occasions. It was important to note that all the MICs from the in vitro antimicrobial screening were expressed in μg/mL units and were available in Tables S3 and S4 (Supplementary Materials).

Candida krusei CCM 8271 = assay: candidacidal MIC, microdilution method; type: cell-based; conditions: 48 h, 37 °C
Protocol: as §5, §6, §7

[6] = system: Candida albicans CCM 8261; assay: candidacidal MIC, microdilution method; type: cell-based; conditions: 48 h, 37 °C
Protocol: as §5, §6, §7

[7] = parameters: method as in PMID 16209439, PMID 16209439, doi:10.2478/s11696-006-0007-y; conditions: octan-1-ol/phosphate buffer (pH = 7.4); cited from earlier work
M. smegmatis ATCC 700084 = assay: antimycobacterial MIC, broth dilution micromethod; type: cell-based; conditions: Mycolicibacterium smegmatis, ATCC700084, 72 h, 3 days at 37 °C
[8] = parameters: method as in PMID 16209439, PMID 16209439; conditions: potentiometric titration; cited from earlier work
M. kansasii DSM 44162 = assay: antimycobacterial MIC, broth dilution micromethod; type: cell-based; conditions: Mycobacterium kansasii, DSM44162, 168 h, 7 days at 37 °C
M. marinum CAMP 5644 = assay: antimycobacterial MIC, broth dilution micromethod; type: cell-based; conditions: Mycobacterium marinum, CAMP5644, 504 h, 21 days at 28 °C
[9] = system: Mycobacterium avium subsp. paratuberculosis CIT03; assay: antimycobacterial MIC, MB broth, alamarBlue; type: cell-based; conditions: 264 h, read-out: MIC MAP
Protocol: The Mycobacterium avium subsp. paratuberculosis CIT03 strain was grown in the Middlebrook (MB) broth, supplemented with the Oleic-Albumin-Dextrose-Catalase Supplement (OADC, Becton Dickinson, Oxford, UK) and the mycobactin J (2 μg/mL). The commercially available siderophore mycobactin J reduced the incubation period of M. avium subsp. paratuberculosis in a complex medium when compared to the medium containing the mycobactin P as a growth factor.
The identification of the isolate was performed using biochemical and molecular protocols. At a log phase growth, a culture sample (10 mL) was centrifuged at 15,000 rpm/20 min using a bench top centrifuge (Model CR 4-12, Jouan Inc., London, UK). Following removal of the supernatant, the pellet was washed in fresh Middlebrook 7H9GC broth and re-suspended in fresh supplemented MB broth (10 mL). The turbidity was adjusted to match the McFarland standard No. 1 containing approximately 3.0 × 10^8 Colony Forming Units (CFU) with the MB broth. Further 1:20 dilution of the culture was performed in the MB broth. The susceptibility of given mycobacterial species was investigated in a 96-well plate format. In those experiments, sterile deionised water (300 μL) was added to all outer-perimeter wells of the plates to minimize an evaporation of the medium in the test wells during the incubation process. Each evaluated compound (100 μL) was incubated with the mycobacterial species (100 μL). The dilutions of a particular compound were prepared in triplicate. For all inspected derivatives, final concentrations ranged from 1000 μg/mL to 60 μg/mL. All compounds were prepared in dimethyl sulfoxide (DMSO; Sigma-Aldrich, Irvine, UK) and subsequent dilutions were made in the supplemented MB broth. The plates were sealed with a parafilm and incubated at 37 °C for 11 days. Following the incubation, a 10% addition of a water‑soluble dye, the alamarBlue reagent (AbD Serotec, Kidlington, UK), was mixed into each well. Absorbance readings at 570 nm and 600 nm were taken, initially for background subtraction and after 24 h re-incubation. The subtraction is necessary for strongly coloured compounds, where the colour may interfere with the interpretation of any colour change. For non-interfering compounds, a blue colour in a well was interpreted as an absence of a growth and a pink colour was scored as a growth.
The minimum inhibitory concentration (MIC) was defined as the lowest concentration of the compound at which no visible bacterial growth was observed. In other words, the MIC was the lowest concentration that prevented a visual colour change from blue to pink. The MIC value has been routinely and widely used in bacterial assays and it has been a standard detection limit according to the Clinical and Laboratory Standards Institute. The clinically used antimycobacterial drugs INH and RIF were applied as the standards.

[10] = Lodderomyces parapsilosis, CCM8260

Q: For `CC1(C)S[C@@H]2[C@H](NC(=O)[C@H](N)c3ccccc3)C(=O)N2[C@H]1C(=O)O` [AMP, ampicillin, reference compound], which MIC ([1]; ATCC29212, 24 h) is on record?
A: > 45.8 µM

Q: What about the MIC ([1]; ATCC29212, Table S4, 24 h) of the same compound?
A: > 16 µg/mL

Q: What about the MIC ([2]; 24 h) of the same compound?
A: > 45.8 µM

Q: What about the MIC ([2]; Table S4, 24 h) of the same compound?
A: > 16 µg/mL

Q: What about the MIC ([3]; ATCC29213, 24 h) of the same compound?
A: 5.72 µM

Q: And the MIC ([3]; ATCC29213, Table S4, 24 h)?
A: 2 µg/mL

Q: What about the MIC ([4]; ATCC25922, 24 h) of the same compound?
A: > 45.8 µM

Q: And the MIC ([4]; ATCC25922, Table S4, 24 h)?
A: > 16 µg/mL

Q: Which MIC [5, 10] does the source give for `C[C@@H]1[C@H](O)[C@@H](C)/C=C/C=C/C=C/C=C/C=C/C=C/C=C/[C@H](O[C@@H]2O[C@H](C)[C@@H](O)[C@H](N)[C@@H]2O)C[C@@H]2O[C@](O)(C[C@@H](O)C[C@@H](O)[C@H](O)CC[C@@H](O)C[C@@H](O)CC(=O)O[C@H]1C)C[C@H](O)[C@H]2C(=O)O` [Amph. B, amphotericin B, reference compound] here?
A: 1.08 µM

Q: And the MIC (Candida krusei CCM 8271; Pichia kudriavzevii, CCM8271)?
A: 0.54 µM

Q: And the MIC ([6]; Candida albicans, CCM8261)?
A: 0.54 µM

Q: What does the source list for `Nc1nc(=O)[nH]cc1F` [Compound 5-FC, 5-flucytosine, reference compound]?
A: MIC [5]: 61.50 µM; MIC CP ([5]; Table S4): 8 µg/mL; MIC (Candida krusei CCM 8271): 0.96 µM; MIC CK (Candida krusei CCM 8271; Table S4): 0.125 µg/mL; MIC [6]: 7.69 µM; MIC CA ([6]; Table S4): 1 µg/mL

Q: Which “log Pexp” value [7] does the source give for `COc1ccccc1NC(=O)OCC(O)CN1CCN(c2cccc(C(F)(F)F)c2)CC1` (centres unmarked) [Compound 5a] here?
A: 3.57

Q: And the MIC [5, 10]?
A: > 261 µM

Q: What about the MIC ([5]; Lodderomyces parapsilosis, CCM8260, Table S4) of the same compound?
A: > 128 µg/mL

Q: What about the MIC (Candida krusei CCM 8271; Pichia kudriavzevii, CCM8271) of the same compound?
A: > 261 µM

Q: And the MIC (Candida krusei CCM 8271; Pichia kudriavzevii, CCM8271, Table S4)?
A: > 128 µg/mL

Q: And the MIC ([6]; Candida albicans, CCM8261)?
A: > 261 µM

Q: What about the MIC ([6]; Candida albicans, CCM8261, Table S4) of the same compound?
A: > 128 µg/mL

Q: What about the MIC (M. smegmatis ATCC 700084) of the same compound?
A: 523 µM

Q: And the MIC (M. smegmatis ATCC 700084; Table S3)?
A: 256 µg/mL

Q: And the pKa [8]?
A: 5.83

Q: What about the MIC (M. kansasii DSM 44162) of the same compound?
A: 131 µM

Q: What about the MIC (M. kansasii DSM 44162; Table S3) of the same compound?
A: 64 µg/mL

Q: What about the MIC (M. marinum CAMP 5644) of the same compound?
A: 131 µM

Q: What about the MIC (M. marinum CAMP 5644; Table S3) of the same compound?
A: 64 µg/mL

Q: And the MIC ([1]; ATCC29212, 24 h)?
A: > 523 µM

Q: What about the MIC ([1]; ATCC29212, Table S4, 24 h) of the same compound?
A: > 256 µg/mL

Q: What about the MIC ([2]; 24 h) of the same compound?
A: > 523 µM

Q: What about the MIC ([2]; Table S4, 24 h) of the same compound?
A: > 256 µg/mL

Q: And the MIC ([3]; ATCC29213, 24 h)?
A: > 523 µM

Q: And the MIC ([3]; ATCC29213, Table S4, 24 h)?
A: > 256 µg/mL

Q: And the MIC ([4]; ATCC25922, 24 h)?
A: > 523 µM

Q: And the MIC ([4]; ATCC25922, Table S4, 24 h)?
A: > 256 µg/mL

Q: And the MIC ([9]; 37 °C, 11 days)?
A: 510 µM

Q: And the MIC [9]?
A: 250 µg/mL
